Results on six compounds are retold here after publication PMC12323867 (RSC Medicinal Chemistry, 2025).

“Also recorded” adds a separate entry of the source. Where two headings read alike, the source gives them in different places.

The subject of data set [1] is H3K4me2 in HCT116 cells. Nature of the data set: Histone methylation H3K4me2 by western blot. Conditions: for H3K4me2 histone methyl marker: HCT116, TCP series conditions (0.2–20 μM). It counts as cell-based, human. The protocol: We next screened 25–33 and SP2509 over a concentration range of 0.1–10 μM in HCT116 cells (obtained from ATCC, CCL-247) and determined LSD1 abundance after 24 hours with an antibody for LSD1 (Fig. S4 ^†). […] Using the same conditions, we also determined the effects of SP2509, 25, 27, 28, 30 and 31 on histone H3 lysine 4 dimethyl (H3K4me2) a validated substrate for LSD1 using a specific antibody for H3K4me2 (Fig. S4 ^†).
Compounds 39–41, 49, 52 and 54 were screened for LSD1 degradation in HCT116 cells using a specific antibody for LSD1. This was performed side-by-side with TCP. Compounds were tested at concentration ranges of 0.2–20 μM and LSD1 abundance was quantified at 24 hours (Fig. S5 ^†). 49, 52 and 54 were also evaluated at 48 and 72 hours. […] We also determined the effects of these compounds on the histone methyl marker H3K4me2 (Fig. S5 and S6 ^†).
2.5 Protocols for LSD1 degradation and histone methylation in HCT116 cells HCT116 human colon carcinoma cells were grown in Dulbecco’s Modified Eagle Medium (DMEM) supplemented with Fetal Bovine Serum (FBS, 10% final concentration) and 1x glutamine/penicillin/streptomycin. Cells were incubated at 37 °C and 5% CO2. Cells were treated with compounds (0.1-20 µM) with a final DMSO volume of 0.04%. DMSO (0.04%) treated and untreated (WT) cells were included as controls.
(§1) HCT116 cells were seeded into six well plates (400000 cells per well) and after requisite compound treatment time (24h, 48h, 72h) cells were harvested and either snap-frozen in liquid nitrogen or lysed in lysis buffer (50mM Tris-HCl, 150 mM NaCl, 0.5% NP-40, 0.5% Triton X-100 + protease inhibitor) on ice for 30 mins. This was centrifuged (15000 rpm, 4 °C, 15 mins) and the supernatant collected.
H2SO4 (0.4 M, equal volume) was added to the pellets for histone extraction and the tubes incubated overnight at 4 °C. Following this, the histone extract was centrifuged (15000 rpm, 4 °C, 15 mins) and the supernatant collected. Protein concentrations of whole cell extract were quantified via Bradford Assay using BIO-RAD Protein Assay Dye Reagent Concentrate.
(§2) Western blots were run on NuPAGE 4-12% Bis-Tris gels, with 30 µg of protein (whole cell extract) or an equivalent volume of histone extract loaded per lane, with all extracts dyed with 4x NuPAGE LDS Sample Buffer. PageRuler Plus Prestained Ladder was used as a reference. Gel electrophoresis was carried out at 140 V for 60-90 mins, following which the proteins were transferred onto nitrocellulose membrane at 30 V for 60 mins. Membranes were blocked in LI-COR Intercept Blocking Buffer overnight at RT on a roller, following which the membrane was probed with primary antibodies for 1 h at RT. The membrane was washed with PBS + 0.1% Tween (3 x 10 mins), then incubated with secondary antibodies for 50 mins at RT. The membrane was washed again (PBS Tween 2 x 10 mins, PBS 1 x 10 mins) following which the blot was visualised with the Odyssey Infrared Imaging System. Image processing and quantification was performed with ImageStudio Lite. […]
(§3) a-tubulin (mouse) – Sigma, t5168 (1:10000 dilution)

For data set [2], the system named is HCT116 cells. The data set can be described thus: CTG cell viability assay. The format is cell-based, human. Conditions: HCT116, CellTiter-Glo, 0.0041-10 uM, 24-48 h (Fig. S3). The protocol:
2.4. CTG cell viability assays
HCT116 cells were seeded onto 96-well plates at a density of 2000 cells/well and allowed 24 h to settle. Cells were then treated with LSD1 inhibitors (0.0041-10 uM) alongside WT, DMSO and cell free control wells for 24-48 h. After this time, plates were equilibrated to RT for 30 mins, then CellTiter-Glo (Promega, G9242) reagent (5 uL/100 uL media) was added. Cells were lysed on an orbital shaker for 10 mins, then incubated at RT for 2 mins to allow luminescence to stabilise, following which luminescence was recorded on a HiDEX Sense microplate reader. To obtained plotted values, luminescence of each tested well was divided by that of the DMSO control, which were plotted against concentration using GraphPad Prism. […] was applied to obtain apparent IC50 values where possible.
Figure S3. Cell viability dose response curves
(1 picture or pasted object on this page, not shown here)
In general terms: ATP-based viability assays read luminescence as a measure of living cells.

For data set [3], the system named is LSD1. Also noted: method as in PMID 38742921. Conditions: cited from earlier work.
For data set [4], the target named is T1, HDAC1-CoREST-LSD1 complex (Homo sapiens, UniProt O60341).
T1 construct: full length native LSD1 (UniProt ID: O60341); made in house; host or cells: HEK 293F cells (co-transfection, pcDNA3 vectors)
Nature of the data set: LSD1 HRP-coupled demethylase assay, TCP analogues. The format is biochemical. To be noted: for inhibition at 50 µM: read-out: LSD1 inhibition at 50 μM. The protocol:
We then evaluated LSD1 inhibition in the LSD1-HDAC1-CoREST complex using the established horseradish peroxidase (HRP) assay.[8]
2. Supplementary Information: Biology
2.1. LSD-HDAC1-CoREST expression and purification
Lysis Buffer (Buffer A) Wash Buffer (Buffer B)
• 50 mM Tris/Cl pH 7.5 • 50 mM Tris/Cl pH 7.5
• 50 mM Potassium Acetate • 50 mM Potassium Acetate […]
Cleavage Buffer (Buffer C) Gel Filtration Buffer (Buffer D)
• 50 mM Tris/Cl pH 7.5 Filtered at vacuum.
• 50 mM Potassium Acetate • 50 mM Tris/Cl pH 7.5
• 5 % v/v Glycerol • 50 mM Potassium Acetate
• 0.5 mM tris(2- • 0.5 mM TCEP carboxyethyl)phosphine (TCEP)
The CoREST ternary complex was comprised of full length native LSD1 (UniProt ID: O60341), full length HDAC1 (UniProt ID: Q13547) and N-terminally truncated RCOR1 (86-485aa) (UniProt ID:
Q9UKL0). Protein constructs were cloned into pcDNA3 vector. The RCOR1 constructs contained an N-terminal (His)10(Flag)3 tag followed by a Tev protease cleavage site. The constructs for ternary complex were co-transfected into suspension-grow HEK 293F cells (Thermofisher Scientific) with polyethylenimine (PEI) (Sigma) and harvested after 48 hours. This section of the procedure was carried out as described previously in literature.11,12
Cell pellets from 1.2 L culture were defrosted, and buffer A (30 mL) was added. The solution was sonicated (Soniprep 150) in an beaker of ice using a 9 mm probe at 10 ampules; operated with 10 […]
Components and concentrations for the HRP-coupled demethylase assay […]
The assay components are shown at their final concentrations per well in the table above. CoREST complex (HDAC 1/RCOR1/LSD1) was added to the assay buffer alongside either DMSO or the relevant inhibitor at the desired concentration on black-walled 96 well plates. Alongside this was another control, with DMSO but no CoREST or inhibitor. Plates were spun to 3000 rpm between each addition of a reagent. Plates were incubated at 20 °C for 30 mins, following which HRP/Amplex Ultrared (1:1 mixture) and peptide was added. Plates were spun, then read on an PerkinElmer 2030 Explorer plate reader, with excitation of 530 nm and […] of 590 nm, with 7 readings taken over […]
Components, where bought in, are listed below:
HRP – Pierce™ Horseradish Peroxidase, Invitrogen
H3K4me2 peptide – Histone H3 dimethyl lysine-4 peptide, Enzo Life Sciences Amplex UltraRed, ThermoFisher Scientific
To the assay buffer was added HRP/AMP in each well to concentrations equal to those in above, following which hydrogen peroxide solution (diluted from 3% hydrogen peroxide solution into a 20 mM stock) was added, in a 1 in 3 dilution series with final concentrations starting from 3 mM.
Negative control wells contained either 100% buffer or as above with no hydrogen peroxide solution.

In data set [5] the target is T2, LSD1 in HCT116 cells (Homo sapiens, UniProt O60341).
T2 construct: host or cells: HCT116
The data set can be described thus: LSD1 degradation (LSD1 abundance) by western blot. It counts as cell-based. The protocol:
Using the same conditions, we also determined the effects of SP2509, 25, 27, 28, 30 and 31 on histone H3 lysine 4 dimethyl (H3K4me2) a validated substrate for LSD1 using a specific antibody for H3K4me2 (Fig. S4 ^†).
Compounds were tested at concentration ranges of 0.2–20 μM and LSD1 abundance was quantified at 24 hours (Fig. S5 ^†). 49, 52 and 54 were also evaluated at 48 and 72 hours. […] We also determined the effects of these compounds on the histone methyl marker H3K4me2 (Fig. S5 and S6 ^†).
2.5 Protocols for LSD1 degradation and histone methylation in HCT116 cells HCT116 human colon carcinoma cells were grown in Dulbecco’s Modified Eagle Medium (DMEM) supplemented with Fetal Bovine Serum (FBS, 10% final concentration) and 1x glutamine/penicillin/streptomycin. Cells were incubated at 37 °C and 5% CO2. Cells were treated […]
untreated (WT) cells were included as controls.
as §1
H2SO4 (0.4 M, equal volume) was added to the pellets for histone extraction and the tubes incubated overnight at 4 °C. Following this, the histone extract was centrifuged (15000 rpm, 4 °C, 15 mins) and the supernatant collected. Protein concentrations of whole cell extract were quantified via Bradford Assay using BIO-RAD Protein Assay Dye Reagent Concentrate. […]
as §2, with “or” for “Western blots were run on NuPAGE 4-12% Bis-Tris gels, with 30 µg of protein (whole cell extract) or”
as §3
(In general: In western blotting, separated proteins are transferred to a membrane and probed.)

Where [6] appears, read: complex 50 nM, mean ± SD from three replicates.
Setting [7] is: HCT116, 0.2–20 μM, 24 hours, LSD1 antibody.

As usually defined, the inhibition is the relative decrease from the control value, in per cent. By IC50 is commonly meant the concentration at which inhibition is half-maximal. Low values mean inhibition by little substance, high ones a need for much substance.

On to `N[C@@H]1C[C@H]1c1ccccc1` (racemic) [TCP, tranylcypromine], for which the “H3K4me2 histone methyl marker” value in data set [1] is on record as “neither did we observe changes; also recorded: did not increase H3K4me2 levels”. For the same compound, in data set [2], the “cytotoxic effects in cells” value was “not observed”. In data set [3], the “ability to increase H3K4me2 on peptides and nucleosomes” value is given as “increased H3K4me2 levels”.
On to `N[C@H]1CC[C@H](N[C@@H]2C[C@H]2c2ccccc2)CC1` [ORY1001, reference compound], for which, in data set [4], the inhibition at 50 µM worked out at 100%. Moreover, the “H3K4me2 histone methyl marker” value in data set [1] was “neither did we observe changes; also recorded: did not increase H3K4me2 levels”. In addition, the “cytotoxic effects in cells” value in data set [2] is listed as “not observed”.
Regarding `Cc1ncsc1-c1ccc(CNC(=O)[C@@H]2C[C@@H](O)CN2C(=O)[C@@H](NC(=O)COCCOCCOCCNC(=O)c2ccc([C@@H]3C[C@H]3N)cc2)C(C)(C)C)cc1` [compound 49], 63 nM corresponded to half-maximal inhibition in data set [4] (setting [6]) (IC50). For the same compound, in data set [4] (single concentration 50 μM, complex 50 nM, compared to no compound treatment control), the inhibition at 50 µM came to 100%. Moreover, the LSD1 degradation result in data set [5] (setting [7]) is recorded as “no degradation”; in data set [5] (HCT116, 48 and 72 hours), “no degradation”. The “H3K4me2 histone methyl marker” value in data set [1] was “no changes”.
Consider `C/C(=N\NC(=O)c1cccc(S(=O)(=O)N2CCOCC2)c1)c1cc(OCCCC(=O)N[C@H](C(=O)N2C[C@H](O)C[C@H]2C(=O)NCc2ccc(-c3scnc3C)cc2)C(C)(C)C)ccc1O` [compound 27], for which the H3K4me2 abundance result in data set [1] (HCT116, 0.1–10 μM, 24 hours, H3K4me2 antibody) is listed as “no increase in H3K4me2”.
On to `N[C@@H]1C[C@H]1c1ccc(C(=O)NCCc2ccc(OCCCCCCCCCCCC(=O)NCCNc3cccc4c3C(=O)N(C3CCC(=O)NC3=O)C4=O)cc2)cc1` (stereo partly drawn) [compound 54], for which the IC50 stood at 280 nM in data set [4] (complex 50 nM) and 282 ± 40 nM in data set [4] (setting [6]). Also, the LSD1 degradation entry in data set [5] (setting [7]) was “no degradation”; in data set [5] (HCT116, 48 and 72 hours), “no degradation”. For the same compound, the “H3K4me2 histone methyl marker” value in data set [1] is “no changes”.
For the compound `COc1ccc(-c2c(-c3ccc(C#N)c(F)c3)nc(N3CCC(N)CC3)n(C)c2=O)cc1F` [CC-90011], the “ability to increase H3K4me2 on peptides and nucleosomes” value in data set [3] is “increased H3K4me2 levels”.
